# Columns and labels:
# E-selectin [1] = experiment: Adhesion molecule expression on HUVEC (ELISA, mRNA slot blot); type: cell-based, human; conditions: for Suppression of TNF-α-induced E-selectin expression on HUVEC: 60 min pre-treatment
# Procedure: FIG. 13 is a representation showing effect of MP3 (β-oxa-23:4n-6) and 20:4n-6 on time-related changes in TNF-α-induced E-selectin, ICAM-1 and VCAM-1 expression on HUVEC. HUVEC were pre-treated with 20 μmol/l β-oxa-23:4n-6 (closed triangles), 20 μmol/l 20:4n-6 (open squares), or DPC (control) for 60 min and then further incubated with TNF-α (125 U/200 μl medium) for up to 24 hr. The expression of E-selectin, ICAM-1 and VCAM-1 adhesion molecules was determined by ELISA. The results are expressed as % of control and represent the mean±SEM of three separate experiments each performed in triplicate. * p<0.05, **p<0.01, ***p<0.001, for significant differences between pre-treatment with fatty acid and corresponding control at a particular time point (one-way analysis of variance followed by the Dunnett test for multiple comparisons). Inset: The effect of β-oxa-23:4n-6 on TNF-α-induced expression of E-selectin mRNA in HUVEC. HUVEC were pre-incubated with β-oxa-23:4n-6 (20 μmol/l) or DPC (control) in 1 ml of medium at 37° C. for 60 min. After the addition of TNF-α, the cells were further incubated at 37° C. for 2 hr. E-selectin mRNA expression was then determined and the results expressed as relative %. Results are the mean±SEM of three separate experiments each performed in quadruplicate. *p<0.0001, for significant differences between pre-treatment with β-oxa-23:4n-6, and control (two-tailed Student's t-test for unpaired data).
# HUVEC were stimulated with TNF, bacterial lipopolysaccharide (LPS) or PMA for 24 hr. Expression of E-selectin, ICAM-1 and VCAM-1 was determined by an enzyme-linked immunosorbent assay (ELISA) or as mRNA using a slot blot technique (Huang et al 1997 supra).
# [2] = LPS-induced influx of neutrophils and mononuclear cells in the peritoneal cavity; type: in vivo, BALB/c mice; conditions: 40 mg/kg intravenously, 6 hr before LPS
# Procedure: FIG. 14 is a representation showing (A) effect of MP3 on in vivo inflammatory response measured as delayed type hypersensitivity (DTH) to sheep erythrocytes and LPS-induced influx of neutrophils and mononuclear cells in the peritoneal cavity in BALB/c mice. In the DTH experiments mice were injected with sheep erythrocytes subcutaneously, challenged with the antigen in the hind foot pad 6 days later and the amount of foot pad swelling measured 48 hr later. One hour prior to challenge mice were given 10 mg/kg body weight of β-oxa fatty acid in 7% w/v, DMSO as vehicle intraperitoneally. […] The data, expressed as % of control, are presented as mean±SEM of 10 and 5 mice for DTH and peritoneal inflammation, respectively. […] The data, expressed as % of control, are presented as mean±SEM of ten mice per group and is representative of two experimental runs. […]
# Effect of MP3 (β-oxa-23:4n-6) on the in vivo inflammatory response was measured as a delayed type hypersensitivity (DTH) reaction and LPS-induced influx of neutrophils and mononuclear cells in the peritoneal cavity in BALB/c mice. For DTH experiments, mice were injected subcutaneously with 100 μl of 10% hematocrit sheep erythrocytes, challenged with the antigen (25 μl of 40%) in the hind foot pad 6 days later and the degree of foot pad swelling measured 48 hr later (Ferrante et al, Clin. & Exp. Immunol. 38:70-76, 1979). […]
# E-selectin [3] = experiment: LPS-induced E-selectin expression in aortic endothelium; type: in vivo, BALB/c mice; conditions: intravenous, 2 hr before LPS, aortas after 5 hr
# Procedure: FIG. 14 is a representation showing (A) effect of MP3 on in vivo inflammatory response measured as delayed type hypersensitivity (DTH) to sheep erythrocytes and LPS-induced influx of neutrophils and mononuclear cells in the peritoneal cavity in BALB/c mice. In the DTH experiments mice were injected with sheep erythrocytes subcutaneously, challenged with the antigen in the hind foot pad 6 days later and the amount of foot pad swelling measured 48 hr later. One hour prior to challenge mice were given 10 mg/kg body weight of β-oxa fatty acid in 7% w/v, DMSO as vehicle intraperitoneally. For the peritoneal cavity inflammation, mice were given intravenously 40 mg/kg MP3 intravenously and 6 hr later injected with LPS intraperitoneally. The cellular infiltrates were examined 24 and 72 hr later. The data, expressed as % of control, are presented as mean±SEM of 10 and 5 mice for DTH and peritoneal inflammation, respectively. […] The data, expressed as % of control, are presented as mean±SEM of ten mice per group and is representative of two experimental runs. […]
# The LPS-induced expression of E-selectin in the aortic endothelium of BALB/c mice was determined following injection of 50 μg LPS intraperitoneally and aortas encompassing the ascending part of the aortic arch through to the bifurcation to the common iliac arteries isolated after 5 hr. […]
# p38 = experiment: TNF-stimulated MAP kinase activity in HUVEC; type: cell-based, human; conditions: HUVEC pre-treated with the fatty acid
# Procedure: ERK and p38 were precipitated with anti-ERK2 (C-14, sc-154) and anti-p38 (C-20, sc-535) antibody, respectively (Santa Cruz Biotech) and the activity determined using myelin basic protein as a substrate (Hii et al, 1995 supra, Hii et al, 1998 supra). JNK activity was determined in a solid phase assay using GST c-Jun (residues-1-79) as a substrate (Hii et al, 1995 supra, Hii et al, 1998 supra).
compound,measurement,setting,value
"CCCCC/C=C\C/C=C\C/C=C\C/C=C\CCCCOCC(=O)O [MP3, β-oxa-23:4n-6]",TNF-α-induced expression of E-selectin mRNA,"E-selectin [1]; 20 μmol/l, 60 min, TNF-α 2 hr",substantially depressed
same,Suppression of TNF-α-induced E-selectin expression on HUVEC,E-selectin [1]; 20 μmol/l,better than docosahexaenoic acid (22:6n-3) at suppressing
same,Suppression of TNF-α-induced E-selectin expression on HUVEC,"E-selectin [1]; 20 μmol/l, listed as β-oxa-23:4n-6",inhibited the expression
same,Time of cytokine treatment at maximum inhibition of E-selectin expression,"E-selectin [1]; 20 μmol/l, TNF-α",4 h
same,Inhibition of LPS and PMA-induced up-regulation of E-selectin,E-selectin [1]; HUVEC,"inhibited LPS and PMA-induced, up-regulation"
same,LPS-induced mononuclear cell infiltrate (72 hr),[2],inhibition of the mononuclear cell infiltrate after 72 hr
same,LPS-induced neutrophil influx (24 hr),[2],inhibited the neutrophil influx
same,LPS-induced E-selectin expression in aortic endothelium,E-selectin [3],effective in vivo at suppressing LPS-stimulated up-regulation of E-selectin expression
same,LPS-induced E-selectin expression in aortic endothelium,E-selectin [3]; listed as β-oxa-23:4n-6,significant reduction in LPS-induced E-selectin expression
same,Effect on ability of TNF to stimulate p38,p38,did not affect

# Reference: patent publication US20090215895A1, “Therapeutic and carrier molecules” (PEPLIN BIOLIPIDS PTY LTD, priority 2004, published 2009)
